Like-named read-outs stand apart in the source and are kept apart here.
What was measured:
Assay in all cases: biochemical
Design in all cases: Thermal shift (DSF, SYPRO Orange) Tm shift of recombinant kinase domains at 10 uM compound
PCTAIRE1 = molecular target: T1, PCTAIRE1 (Homo sapiens, UniProt Q00536)
T1 construct: gene CDK16

BRD4 = BRD4 (Homo sapiens, UniProt O60885)
EPHB1 = molecular target: T2, EPHB1 (Homo sapiens, UniProt P54762)
T2 sequence (P54762 1-984): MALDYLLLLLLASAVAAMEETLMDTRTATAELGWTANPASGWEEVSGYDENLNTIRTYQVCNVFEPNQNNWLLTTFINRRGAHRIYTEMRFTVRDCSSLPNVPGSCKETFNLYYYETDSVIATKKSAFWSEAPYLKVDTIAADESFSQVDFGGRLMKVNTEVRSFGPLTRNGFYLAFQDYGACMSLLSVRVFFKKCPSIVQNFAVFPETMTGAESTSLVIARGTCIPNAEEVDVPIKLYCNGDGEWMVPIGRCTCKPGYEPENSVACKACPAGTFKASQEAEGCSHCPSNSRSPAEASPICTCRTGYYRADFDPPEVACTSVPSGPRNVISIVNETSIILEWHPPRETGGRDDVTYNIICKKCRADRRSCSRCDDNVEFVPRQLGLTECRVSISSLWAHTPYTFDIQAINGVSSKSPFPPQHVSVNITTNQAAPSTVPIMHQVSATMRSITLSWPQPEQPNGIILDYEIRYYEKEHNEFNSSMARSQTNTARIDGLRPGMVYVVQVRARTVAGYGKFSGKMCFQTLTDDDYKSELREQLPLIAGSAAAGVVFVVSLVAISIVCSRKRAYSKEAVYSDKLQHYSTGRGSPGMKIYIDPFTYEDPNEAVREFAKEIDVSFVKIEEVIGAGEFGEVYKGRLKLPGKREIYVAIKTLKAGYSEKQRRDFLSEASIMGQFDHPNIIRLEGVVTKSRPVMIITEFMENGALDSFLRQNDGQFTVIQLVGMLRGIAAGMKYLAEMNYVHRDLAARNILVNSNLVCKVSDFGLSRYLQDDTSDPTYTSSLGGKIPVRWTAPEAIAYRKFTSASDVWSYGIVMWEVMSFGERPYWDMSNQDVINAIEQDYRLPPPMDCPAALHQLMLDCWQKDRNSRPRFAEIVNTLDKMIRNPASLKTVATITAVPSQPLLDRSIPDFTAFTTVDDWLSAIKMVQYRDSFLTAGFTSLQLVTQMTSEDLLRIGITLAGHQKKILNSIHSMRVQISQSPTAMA

MST1 = molecular target: T3, MST1 (Homo sapiens, UniProt Q13043)
T3 construct: gene STK4
T3 sequence (Q13043 1-487): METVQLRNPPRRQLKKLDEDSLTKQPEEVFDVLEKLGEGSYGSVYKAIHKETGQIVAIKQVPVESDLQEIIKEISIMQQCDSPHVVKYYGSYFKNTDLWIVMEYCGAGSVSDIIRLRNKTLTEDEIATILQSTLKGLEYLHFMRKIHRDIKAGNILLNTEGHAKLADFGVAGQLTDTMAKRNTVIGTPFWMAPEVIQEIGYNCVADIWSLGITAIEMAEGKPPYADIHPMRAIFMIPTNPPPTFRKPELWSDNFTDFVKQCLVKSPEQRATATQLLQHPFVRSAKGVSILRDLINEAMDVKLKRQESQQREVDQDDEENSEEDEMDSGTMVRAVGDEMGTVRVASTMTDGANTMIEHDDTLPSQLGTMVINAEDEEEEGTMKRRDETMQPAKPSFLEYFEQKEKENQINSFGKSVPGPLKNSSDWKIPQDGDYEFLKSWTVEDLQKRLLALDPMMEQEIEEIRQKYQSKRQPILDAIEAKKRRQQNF

T1 sequence (Q00536 whole entry): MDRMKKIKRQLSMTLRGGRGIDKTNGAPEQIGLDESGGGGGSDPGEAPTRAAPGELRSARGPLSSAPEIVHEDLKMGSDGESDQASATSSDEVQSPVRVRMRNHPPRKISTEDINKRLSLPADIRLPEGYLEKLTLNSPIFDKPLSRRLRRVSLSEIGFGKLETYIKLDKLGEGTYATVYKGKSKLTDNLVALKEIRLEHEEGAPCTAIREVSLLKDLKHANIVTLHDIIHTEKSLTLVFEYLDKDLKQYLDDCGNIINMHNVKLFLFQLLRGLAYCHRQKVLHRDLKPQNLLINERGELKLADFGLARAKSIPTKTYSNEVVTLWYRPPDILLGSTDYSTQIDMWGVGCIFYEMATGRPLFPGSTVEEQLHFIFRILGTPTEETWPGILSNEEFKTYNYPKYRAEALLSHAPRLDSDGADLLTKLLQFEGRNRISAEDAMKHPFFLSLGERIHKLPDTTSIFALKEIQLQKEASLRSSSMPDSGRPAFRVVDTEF

For COc1ccc(OC(C)C)cc1Nc1cncc(-c2ccc(C(=O)O)cc2)n1 [7c], the ΔTm at 10 µM (PCTAIRE1; read-out: 7c) was 2 °C, the ΔTm at 10 µM (BRD4; read-out: 7c) was 1 °C and the ΔTm at 10 µM (EPHB1; read-out: 7c) was 1 °C. It also gave a ΔTm at 10 µM (MST1; read-out: 7c) of 1 °C.
CC(C)Nc1ccc2cnn(-c3cncc(-c4ccc(C(=O)O)cc4)n3)c2c1 [compound 2, 2] gave a ΔTm at 10 µM (PCTAIRE1; read-out: 2) of 2 °C, a ΔTm at 10 µM (BRD4; read-out: 2) of 2 °C and a ΔTm at 10 µM (EPHB1; read-out: 2) of 2 °C. For the same compound, the ΔTm at 10 µM (MST1; read-out: 2) was 3 °C.
For CC(C)Oc1ccc2ccn(-c3cncc(-c4ccc(C(=O)O)cc4)n3)c2c1 [6c], the ΔTm at 10 µM (PCTAIRE1; read-out: 6c) was 5 °C, the ΔTm at 10 µM (BRD4; read-out: 6c) was 2 °C and the ΔTm at 10 µM (EPHB1; read-out: 6c) was 2 °C. The ΔTm at 10 µM (MST1; read-out: 6c) was 1 °C.
